Experimental data from patent US5849494A, “Methods for sensitive detection of reverse transcriptase” (priority 1996, dated 1998).

How the values were obtained:
[1] = biological target: RT of group M viruses (HIV-1 M:B_HXB2R, UniProt P04585); details: nevirapine at 100 μM; 21 group M reference isolates of A through F subtypes; culture supernatants
Experimental: (§1) To measure the sensitivity of group M and group O viruses to nevirapine (Boehringer Mannheim), the Amp-RT assay as described herein was used to measure the enzymatic activity of RT of these viruses in the presence or absence of the drug. Ten microliters of culture supernatants were added to 40 μl of RT buffer containing 10 ng of RNA template, 10 units of Rnasin (Promega, Wis.), 0.06% NP-40, 100 ng of the antisense primer EMCR2 (SEQ ID NO:2), 0.8 mM EGTA, 2 mM dithiothreitol, 50 mM Tris-HCl, 10 mM MgCl2 and 200 μM of each dNTP with or without 100 μM of nevirapine. The reaction was incubated at 37° C. for one hour and heated at 95° C. for ten minutes. The products of the RT reaction were PCR amplified for 35 cycles at 95° C. for one minute, 55° C. for one minute and 72° C. for one minute after the addition of 50 μl of PCR buffer containing 2.5 units of Taq polymerase, 100 ng of sense primer EMCF1': 5'[…]3' (SEQ ID NO:10). Twenty microliters of the reaction product was electrophoresed in 1.8% agarose gels and Southern blot hybridized to ^32 P-end labeled internal probe EMCP1 (SEQ ID NO:3). For qualitative detection, blots were exposed on autoradiographic film for 12-16 hours. For quantitative detection, blots were exposed for 3-6 hours and their radioactivities were read and measured by a Phosphor Imager (Model # 400E, Molecular Dynamics, Inc., CA). […]

[2] = biological target: T1, RT of group O reference isolate MVP5180 (Human immunodeficiency virus type 1 group O, UniProt Q79666); assay: Amp-RT assay of RT activity of HIV-1 group O isolate with or without nevirapine; type: biochemical; details: nevirapine at 100 μM, culture supernatant
T1 construct: measure the enzymatic activity of RT of these viruses
Experimental: as §1

[3] = biological target: T2, RT in group O sera (HIV-1 O_MVP5180, UniProt Q79666); assay: Direct Amp-RT assay of sera from group O-infected persons with or without nevirapine; type: biochemical, HIV-1 group O; details: 10 group O-infected persons; unprocessed 2 μl serum samples
T2 construct: Amp-RT with EMCV RNA template
Experimental: (§2) Plasma samples from 55 HIV-1 infected persons, ten seroconversion panels and 100 uninfected controls were studied. Two micoliter volumes of unprocessed plasma were tested in duplicate by the Amp-RT protocol as described above. The viral load was determined from a standard curve generated by known numbers of recombinant HIV-1 RT molecules and was expressed as equivalents of recombinant RT (rRT) molecules/ml. For comparison, RNA virus loads were also determined by the NASBA commercial assay (Organon).
(§3) To measure the sensitivity of group M and group O viruses to nevirapine (Boehringer Mannheim), the Amp-RT assay as described herein was used to measure the enzymatic activity of RT of these viruses in the presence or absence of the drug. Ten microliters of culture supernatants were added to 40 μl of RT buffer containing 10 ng of RNA template, 10 units of Rnasin (Promega, Wis.), 0.06% NP-40, 100 ng of the antisense primer EMCR2 (SEQ ID NO:2), 0.8 mM EGTA, 2 mM dithiothreitol, 50 mM Tris-HCl, 10 mM MgCl2 and 200 μM of each dNTP with or without 100 μM of nevirapine. […] For quantitative detection, blots were exposed for 3-6 hours and their radioactivities were read and measured by a Phosphor Imager (Model # 400E, Molecular Dynamics, Inc., CA). […]
(§4) Applicability to serum screening was evaluated in 10 group O-infected and 10 group M-infected persons.

[4] = biological target: RT in group M sera (HIV-1 M:B_HXB2R, UniProt P04585); details: 10 group M-infected persons; unprocessed 2 μl serum samples
Experimental: as §2, §3, §4

For `Cc1ccnc2c1NC(=O)c1cccnc1N2C1CC1` [nevirapine], the “Effect on Amp-RT activity of group M reference isolates” value [1] was “inhibit”, the “Sensitivity of group O reference isolate to nevirapine (Amp-RT)” value [2] was “resistant” and the “Amp-RT result of group O sera with nevirapine” value [3] was “Amp-RT positive in the presence and absence of nevirapine”. The “Amp-RT result of group M sera with nevirapine” value [4] was “positive only in the absence of nevirapine”.
